How the values were obtained:
Format in all cases: in vivo
Monochoria vaginalis = test: Test Example 2: herbicidal activity, application during weed generation in submerged conditions; details: Eighteenth Table; application herbicide amount 320 g/ha
Summary of the method: (§1)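 Paddy-type pot test: flooded soil, 4 cm depth, greenhouse 25–30 °C. Emulsion formulation diluted in water, applied to water surface at 1–2 leaf stage; rate expressed as g/ha. Read-out at 3 wk, 0–5 score.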

Scirpus juncoides = test: as above; details: Eighteenth Table; application herbicide amount 320 g/ha
Summary of the method: as §1

[1] = system: Echinochloa oryzacola Vasing.; test: as above; details: Eighteenth Table; application herbicide amount 320 g/ha
Summary of the method: as §1

[2] = system: directly sowed Oryza sativa; test: Test Example 4: effect on crop by application to foliage (diluvial soil, plastic box); details: application to foliage, application herbicide amount 320 g/ha
Summary of the method: (§2)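 Read-out is a 0–5 visual grade of herbicidal ratio (5: ≥90%, almost withered; 0: ≤5%) taken three weeks after treatment. Compound was applied as a diluted emulsion to stem and leaf parts of 14-day greenhouse-grown plants (25° C. to 30° C.) at rates expressed as g/ha.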

[3] = system: Beta vulgaris ssp. vulgaris; test: as above; details: application to foliage, application herbicide amount 320 g/ha
Summary of the method: as §2

Glycine max = test: as above; details: application to foliage, application herbicide amount 320 g/ha
Summary of the method: as §2

Zea mays = test: as above; details: application to foliage, application herbicide amount 320 g/ha
Summary of the method: as §2

Triticum aestivum = test: as above; details: application to foliage, application herbicide amount 320 g/ha
Summary of the method: as §2

Brassica campestris L. = test: as above; details: application to foliage, application herbicide amount 320 g/ha
Summary of the method: as §2

Apera spica-venti. = test: Test Example 4: herbicidal effect by application to foliage (diluvial soil, plastic box); details: application to foliage, application herbicide amount 320 g/ha
Summary of the method: as §2

Abutilon theophrasti = test: as above; details: application to foliage, application herbicide amount 320 g/ha
Summary of the method: as §2

Veronica persica = test: as above; details: application to foliage, application herbicide amount 320 g/ha
Summary of the method: as §2

[4] = system: Echinochloa crus-galli var. crus-galli; test: as above; details: application to foliage, application herbicide amount 320 g/ha
Summary of the method: as §2

Chenopodium album = test: as above; details: application to foliage, application herbicide amount 320 g/ha
Summary of the method: as §2

Avena fatua = test: as above; details: application to foliage, application herbicide amount 320 g/ha
Summary of the method: as §2

Setaria viridis = test: as above; details: application to foliage, application herbicide amount 320 g/ha
Summary of the method: as §2

Lolium multiflorum Lam. = test: as above; details: application to foliage, application herbicide amount 320 g/ha
Summary of the method: as §2

Alopecurus myosuroides = test: as above; details: application to foliage, application herbicide amount 320 g/ha
Summary of the method: as §2

CCC(C)c1nnc2c(C(=O)Nc3nnc(C)o3)ccc(C(F)(F)F)n12 (stereo not drawn) [1-021]
C (Monochoria vaginalis) herbicidal ratio grade (Monochoria vaginalis): 3 (Herbicidal ratio of 40% or more and less than 70%) | B (Scirpus juncoides) herbicidal ratio grade (Scirpus juncoides): 4 (Herbicidal ratio of 70% or more and less than 90%) | A (Echinochloa oryzicola Vasing.) herbicidal ratio grade [1]: 4 (Herbicidal ratio of 70% or more and less than 90%) | d (directly sowed Oryza sativa) effect on crop [2]: 3 (Herbicidal ratio of 40% or more and less than 70%) | f (Beta vulgaris ssp. vulgaris) effect on crop [3]: 5 (Herbicidal ratio of 90% or more (almost completely withered)) | c (Glycine max) effect on crop (Glycine max): 0 (Herbicidal ratio of 5% or less (almost no effect)) | b (Zea mays) effect on crop (Zea mays): 1 (Herbicidal ratio of 5% or more and less than 20%) | e (Triticum aestivum) effect on crop (Triticum aestivum): 1 (Herbicidal ratio of 5% or more and less than 20%) | g (Brassica campestris L.) effect on crop (Brassica campestris L.): 3 (Herbicidal ratio of 40% or more and less than 70%) | L (Apera spica-venti.) herbicidal effect (Apera spica-venti.): 1 (Herbicidal ratio of 5% or more and less than 20%) | M (Abutilon theophrasti) herbicidal effect (Abutilon theophrasti): 5 (Herbicidal ratio of 90% or more (almost completely withered)) | R (Veronica persica) herbicidal effect (Veronica persica): 4 (Herbicidal ratio of 70% or more and less than 90%) | H (Echinochloa crus-galli var. crus-galli) herbicidal effect [4]: 4 (Herbicidal ratio of 70% or more and less than 90%) | O (Chenopodium album) herbicidal effect (Chenopodium album): 5 (Herbicidal ratio of 90% or more (almost completely withered)) | I (Avena fatua) herbicidal effect (Avena fatua): 1 (Herbicidal ratio of 5% or more and less than 20%) | G (Setaria viridis) herbicidal effect (Setaria viridis): 3 (Herbicidal ratio of 40% or more and less than 70%) | K (Lolium multiflorum Lam.) herbicidal effect (Lolium multiflorum Lam.): 1 (Herbicidal ratio of 5% or more and less than 20%) | J (Alopecurus myosuroides) herbicidal effect (Alopecurus myosuroides): 1 (Herbicidal ratio of 5% or more and less than 20%)

Cc1cc(-c2nnc3c(C(=O)Nc4nnc(C)o4)ccc(C(F)(F)F)n23)no1 [1-022]
C (Monochoria vaginalis) herbicidal ratio grade (Monochoria vaginalis): 0 (Herbicidal ratio of 5% or less (almost no effect)) | B (Scirpus juncoides) herbicidal ratio grade (Scirpus juncoides): 2 (Herbicidal ratio of 20% or more and less than 40%) | A (Echinochloa oryzicola Vasing.) herbicidal ratio grade [1]: 2 (Herbicidal ratio of 20% or more and less than 40%) | d (directly sowed Oryza sativa) effect on crop [2]: 3 (Herbicidal ratio of 40% or more and less than 70%) | f (Beta vulgaris ssp. vulgaris) effect on crop [3]: 4 (Herbicidal ratio of 70% or more and less than 90%) | c (Glycine max) effect on crop (Glycine max): 2 (Herbicidal ratio of 20% or more and less than 40%) | b (Zea mays) effect on crop (Zea mays): 0 (Herbicidal ratio of 5% or less (almost no effect)) | e (Triticum aestivum) effect on crop (Triticum aestivum): 1 (Herbicidal ratio of 5% or more and less than 20%) | g (Brassica campestris L.) effect on crop (Brassica campestris L.): 2 (Herbicidal ratio of 20% or more and less than 40%) | L (Apera spica-venti.) herbicidal effect (Apera spica-venti.): 1 (Herbicidal ratio of 5% or more and less than 20%) | M (Abutilon theophrasti) herbicidal effect (Abutilon theophrasti): 5 (Herbicidal ratio of 90% or more (almost completely withered)) | R (Veronica persica) herbicidal effect (Veronica persica): 4 (Herbicidal ratio of 70% or more and less than 90%) | H (Echinochloa crus-galli var. crus-galli) herbicidal effect [4]: 5 (Herbicidal ratio of 90% or more (almost completely withered)) | O (Chenopodium album) herbicidal effect (Chenopodium album): 5 (Herbicidal ratio of 90% or more (almost completely withered)) | I (Avena fatua) herbicidal effect (Avena fatua): 1 (Herbicidal ratio of 5% or more and less than 20%) | G (Setaria viridis) herbicidal effect (Setaria viridis): 3 (Herbicidal ratio of 40% or more and less than 70%) | K (Lolium multiflorum Lam.) herbicidal effect (Lolium multiflorum Lam.): 1 (Herbicidal ratio of 5% or more and less than 20%) | J (Alopecurus myosuroides) herbicidal effect (Alopecurus myosuroides): 1 (Herbicidal ratio of 5% or more and less than 20%)

CCCc1nnc2c(C(=O)Nc3nnc(C)o3)ccc(C(F)(F)F)n12 [1-024]
C (Monochoria vaginalis) herbicidal ratio grade (Monochoria vaginalis): 0 (Herbicidal ratio of 5% or less (almost no effect)) | B (Scirpus juncoides) herbicidal ratio grade (Scirpus juncoides): 1 (Herbicidal ratio of 5% or more and less than 20%) | A (Echinochloa oryzicola Vasing.) herbicidal ratio grade [1]: 4 (Herbicidal ratio of 70% or more and less than 90%) | d (directly sowed Oryza sativa) effect on crop [2]: 4 (Herbicidal ratio of 70% or more and less than 90%) | f (Beta vulgaris ssp. vulgaris) effect on crop [3]: 4 (Herbicidal ratio of 70% or more and less than 90%) | c (Glycine max) effect on crop (Glycine max): 2 (Herbicidal ratio of 20% or more and less than 40%) | b (Zea mays) effect on crop (Zea mays): 0 (Herbicidal ratio of 5% or less (almost no effect)) | e (Triticum aestivum) effect on crop (Triticum aestivum): 0 (Herbicidal ratio of 5% or less (almost no effect)) | g (Brassica campestris L.) effect on crop (Brassica campestris L.): 4 (Herbicidal ratio of 70% or more and less than 90%) | L (Apera spica-venti.) herbicidal effect (Apera spica-venti.): 1 (Herbicidal ratio of 5% or more and less than 20%) | M (Abutilon theophrasti) herbicidal effect (Abutilon theophrasti): 4 (Herbicidal ratio of 70% or more and less than 90%) | R (Veronica persica) herbicidal effect (Veronica persica): 4 (Herbicidal ratio of 70% or more and less than 90%) | H (Echinochloa crus-galli var. crus-galli) herbicidal effect [4]: 4 (Herbicidal ratio of 70% or more and less than 90%) | O (Chenopodium album) herbicidal effect (Chenopodium album): 5 (Herbicidal ratio of 90% or more (almost completely withered)) | I (Avena fatua) herbicidal effect (Avena fatua): 1 (Herbicidal ratio of 5% or more and less than 20%) | G (Setaria viridis) herbicidal effect (Setaria viridis): 3 (Herbicidal ratio of 40% or more and less than 70%) | K (Lolium multiflorum Lam.) herbicidal effect (Lolium multiflorum Lam.): 0 (Herbicidal ratio of 5% or less (almost no effect)) | J (Alopecurus myosuroides) herbicidal effect (Alopecurus myosuroides): 0 (Herbicidal ratio of 5% or less (almost no effect))

Cc1nnc(NC(=O)c2ccc(C(F)(F)F)n3c(C4CCCC4)nnc23)o1 [1-026]
C (Monochoria vaginalis) herbicidal ratio grade (Monochoria vaginalis): 0 (Herbicidal ratio of 5% or less (almost no effect)) | B (Scirpus juncoides) herbicidal ratio grade (Scirpus juncoides): 1 (Herbicidal ratio of 5% or more and less than 20%) | A (Echinochloa oryzicola Vasing.) herbicidal ratio grade [1]: 3 (Herbicidal ratio of 40% or more and less than 70%) | d (directly sowed Oryza sativa) effect on crop [2]: 3 (Herbicidal ratio of 40% or more and less than 70%) | f (Beta vulgaris ssp. vulgaris) effect on crop [3]: 5 (Herbicidal ratio of 90% or more (almost completely withered)) | c (Glycine max) effect on crop (Glycine max): 0 (Herbicidal ratio of 5% or less (almost no effect)) | b (Zea mays) effect on crop (Zea mays): 0 (Herbicidal ratio of 5% or less (almost no effect)) | e (Triticum aestivum) effect on crop (Triticum aestivum): 1 (Herbicidal ratio of 5% or more and less than 20%) | g (Brassica campestris L.) effect on crop (Brassica campestris L.): 3 (Herbicidal ratio of 40% or more and less than 70%) | L (Apera spica-venti.) herbicidal effect (Apera spica-venti.): 2 (Herbicidal ratio of 20% or more and less than 40%) | M (Abutilon theophrasti) herbicidal effect (Abutilon theophrasti): 3 (Herbicidal ratio of 40% or more and less than 70%) | R (Veronica persica) herbicidal effect (Veronica persica): 5 (Herbicidal ratio of 90% or more (almost completely withered)) | H (Echinochloa crus-galli var. crus-galli) herbicidal effect [4]: 3 (Herbicidal ratio of 40% or more and less than 70%) | O (Chenopodium album) herbicidal effect (Chenopodium album): 5 (Herbicidal ratio of 90% or more (almost completely withered)) | I (Avena fatua) herbicidal effect (Avena fatua): 1 (Herbicidal ratio of 5% or more and less than 20%) | G (Setaria viridis) herbicidal effect (Setaria viridis): 3 (Herbicidal ratio of 40% or more and less than 70%) | K (Lolium multiflorum Lam.) herbicidal effect (Lolium multiflorum Lam.): 1 (Herbicidal ratio of 5% or more and less than 20%) | J (Alopecurus myosuroides) herbicidal effect (Alopecurus myosuroides): 1 (Herbicidal ratio of 5% or more and less than 20%)

CCOCc1nnc2c(C(=O)Nc3nnc(C)o3)ccc(C(F)(F)F)n12 [1-027]
C (Monochoria vaginalis) herbicidal ratio grade (Monochoria vaginalis): 3 (Herbicidal ratio of 40% or more and less than 70%) | B (Scirpus juncoides) herbicidal ratio grade (Scirpus juncoides): 3 (Herbicidal ratio of 40% or more and less than 70%) | A (Echinochloa oryzicola Vasing.) herbicidal ratio grade [1]: 4 (Herbicidal ratio of 70% or more and less than 90%) | d (directly sowed Oryza sativa) effect on crop [2]: 5 (Herbicidal ratio of 90% or more (almost completely withered)) | f (Beta vulgaris ssp. vulgaris) effect on crop [3]: 5 (Herbicidal ratio of 90% or more (almost completely withered)) | c (Glycine max) effect on crop (Glycine max): 1 (Herbicidal ratio of 5% or more and less than 20%) | b (Zea mays) effect on crop (Zea mays): 0 (Herbicidal ratio of 5% or less (almost no effect)) | e (Triticum aestivum) effect on crop (Triticum aestivum): 2 (Herbicidal ratio of 20% or more and less than 40%) | g (Brassica campestris L.) effect on crop (Brassica campestris L.): 4 (Herbicidal ratio of 70% or more and less than 90%) | L (Apera spica-venti.) herbicidal effect (Apera spica-venti.): 3 (Herbicidal ratio of 40% or more and less than 70%) | M (Abutilon theophrasti) herbicidal effect (Abutilon theophrasti): 5 (Herbicidal ratio of 90% or more (almost completely withered)) | R (Veronica persica) herbicidal effect (Veronica persica): 5 (Herbicidal ratio of 90% or more (almost completely withered)) | H (Echinochloa crus-galli var. crus-galli) herbicidal effect [4]: 5 (Herbicidal ratio of 90% or more (almost completely withered)) | O (Chenopodium album) herbicidal effect (Chenopodium album): 5 (Herbicidal ratio of 90% or more (almost completely withered)) | I (Avena fatua) herbicidal effect (Avena fatua): 2 (Herbicidal ratio of 20% or more and less than 40%) | G (Setaria viridis) herbicidal effect (Setaria viridis): 4 (Herbicidal ratio of 70% or more and less than 90%) | K (Lolium multiflorum Lam.) herbicidal effect (Lolium multiflorum Lam.): 1 (Herbicidal ratio of 5% or more and less than 20%) | J (Alopecurus myosuroides) herbicidal effect (Alopecurus myosuroides): 2 (Herbicidal ratio of 20% or more and less than 40%)

From patent publication US9708314B2, “Heterocyclic amide compound” (NISSAN CHEMICAL INDUSTRIES, LTD., priority 2013, dated 2017)
